The text below walks through data of publication PMC3677654, “Soy Glycinin Contains a Functional Inhibitory Sequence against Muscle-Atrophy-Associated Ubiquitin Ligase Cbl-b” (International Journal of Endocrinology, 2013).

The test system of experiment [1] is Cbl-b-mediated ubiquitination of IRS-1. The experiment in a line: Cbl-b-mediated IRS-1 ubiquitination in transfected HEK293 cells. The format is cell-based, human Cbl-b, rat IRS-1. The following applies: 120 μM, 10 ng/mL IGF-1 for 1 h, 100 nM epoxomicin, immunoblot. The procedure: HEK293 cells were maintained in Dulbecco's modified Eagle medium (DMEM) containing 10% fetal bovine serum, 100 U/mL penicillin, and 100 μg/mL streptomycin at 37°C under 5% CO2-[…] gas mixture.
(§1) HEK293 cells (40–60% of confluence) were transfected with plasmid vectors, using Hily Max lipofection reagent (DOJINDO, Kumamoto, Japan), as described previously. The expression plasmids used in this study were pCEFL-human Cbl-b-HA, pcDNA3.1-rat IRS-1-V5, and pcDNA3-FLAG-Ubiquitin.
(§2) Immunoblot and immunoprecipitation analyses were performed as described previously. The following antibodies were used: anti-actin (Calbiochem, La Jolla, CA, USA), anti-HA.11 (BabCo, Richmond, CA, USA), anti-V5 (Invitrogen, Carlsbad, CA, USA), anti-FLAG M2 (Sigma, St. Louis, MO, USA), anti-IRS-1 (Upstate Biotechnology, Lake Placid, NY, USA), anti-Akt-1 (PharMingen International, Tokyo), and anti-phospho-S^473-Akt-1 (Cell Signaling Technology, Beverly, MA, USA).
We used the following pentapeptides or hexapeptides derived from soy: soy-glycinin-derived peptide, soy-β-conglycinin-derived peptide, lipoprotein- (LP-) derived peptide, and soy protein isolate (SPI). These peptides were kindly provided by Fuji Oil Co. (Osaka, Japan). […] A patent application was lodged for the sequence of this peptide (Pat. no. 5113346). […] These peptides were kindly provided by Otsuka Pharmaceutical Co. (Tokushima, Japan). […]

Experiment [2] deals with interaction between Cbl-b and IRS-1. Description: Interaction between Cbl-b and IRS-1 in HEK293 cells (co-immunoprecipitation). Type of experiment: cell-based, human Cbl-b, rat IRS-1. The following applies: 120 μM, anti-IRS-1 immunoprecipitates. The procedure:
as §1, §2
Figure 3 Inhibitory effect of Cblin-like synthetic peptide on Cbl-b-mediated degradation and ubiquitination of IRS-1. HEK293 cells were transfected with mock vector/pCEFL-Cbl-b-HA, pcDNA3.1-rat IRS-1-V5, and pcDNA3-FLAG-Ubiquitin and then treated with 100 nM epoxomicin at 2 hours before treatment with each peptide at the indicated concentrations. One hour later, these cells were treated with 10 ng/mL IGF-1 for 1 hour. Immunoprecipitates (IP) from whole cell lysates incubated with an anti-IRS-1 antibody were subjected to immunoblot (IB) analysis for the indicated proteins. […]

The subject of experiment [3] is Cbl-b-mediated ubiquitination of IRS-1. The following applies: ref [4], cited from earlier work; for Inhibitory activity on Cbl-b-mediated IRS-1 ubiquitination: in words. The source says: These peptides were kindly provided by Fuji Oil Co. (Osaka, Japan). […] A patent application was lodged for the sequence of this peptide (Pat. no. 5113346).
Experiment [4] has as its system denervated skeletal muscle of mice. The following applies: ref [4], cited from earlier work. The source says: Therefore, we hypothesized that foodstuffs that contain Cblin-like amino acid sequence can be used to prevent unloading-induced muscle atrophy.

Entries after “also recorded” stand apart in the source; their conditions may differ.

Turning to DGpYMP [Cblin], the “Inhibition of IRS-1 ubiquitination” value in experiment [1] is “inhibited IRS-1 ubiquitination”. Further, in experiment [2], the “Inhibition of interaction between Cbl-b and IRS-1” value is “inhibited IRS-1 ubiquitination and interaction between Cbl-b and IRS-1”. For the same substance, the IC50 (in general, the point on the concentration scale where inhibition reaches its midpoint) in experiment [3] (approximate) is ~120 µM. Moreover, the “Inhibitory activity on Cbl-b-mediated IRS-1 ubiquitination” value in experiment [3] is “exhibited inhibitory activity on Cbl-b-mediated IRS-1 ubiquitination; also recorded: inhibited Cbl-b-mediated ubiquitination and degradation of IRS-1 both in vitro and in vivo”. Further, in experiment [4] (mice), the “Prevention of denervation-induced muscle atrophy” value is recorded as “inhibited Cbl-b-mediated degradation of IRS-1, resulting in suppression of denervation-mediated muscle atrophy; also recorded: prevented denervation-induced muscle atrophy in mice”. Besides, the “Expression of MAFbx/atrogin-1” value in experiment [4] was “inhibited Cbl-b-mediated IRS-1 ubiquitination and expression of MAFbx/atrogin-1”.
Turning to VGpYLR, the “Inhibitory activity on Cbl-b-mediated IRS-1 ubiquitination” value in experiment [3] is “no inhibitory activity against Cbl-b-mediated IRS-1 ubiquitination”.
